14 compounds from ChEMBL document CHEMBL4118082 (Eur J Med Chem, 2017) can be followed below.

For series [1], the system named is Mycolicibacterium smegmatis. The series can be described thus: Antimycobacterial activity against Mycobacterium smegmatis MC2 155 harboring pSMT1 carrying luxAB gene after 6 days by luminescence based serial dilution method. Type of series: functional. The settings on record: str. MC2 155, 144 h.
Series [2] can be described thus: Cytotoxicity against human MRC5 cells assessed as reduction in cell viability after 24 hrs by neutral red uptake assay. The format is cell-based.
Series [3] has as its system Mycobacterium avium. Put plainly: Antimycobacterial activity against Mycobacterium avium ssp. paratuberculosis ATCC 19698 harboring pSMT1 carrying luxAB gene after 6 days by luminescence based serial dilution method. The format is functional, Mycobacterium avium subsp. paratuberculosis. The settings on record: ATCC 19698, 144 h.
Series [4] has as its system Mycobacterium avium. The series can be described thus: Antimycobacterial activity against Mycobacterium avium ssp. avium ATCC 15769 harboring pSMT1 carrying luxAB gene after 6 days by luminescence based serial dilution method. The format is functional, Mycobacterium avium subsp. avium. The settings on record: ATCC 15769, 144 h.

Usually MIC90 stands for the lowest concentration that inhibits either 90% of growth or 90% of the strains tested, depending on the study. What is called CC50 is the concentration that lowers cell viability or growth by half.

The structures appear in SMILES notation. In brackets after ≈: the same amount, converted by molar mass.

`O=c1c(-c2ccccc2)c(O)c2ccccc2n1-c1ccccc1`: the MIC90 in series [1] came to 10.3 µM (≈ 3.23 µg/mL); in the series on Mycobacterium avium [3] it was 23.8 µM (≈ 7.46 µg/mL); with Mycobacterium avium [4], 35.4 µM (≈ 11.1 µg/mL). For the same compound, in series [2], the CC50 at 24 h was above 128 µM.
As to `COc1cccc2c(O)c(-c3ccccc3)c(O)nc12`, the MIC90 in series [1] amounted to 15.1 µM (≈ 4.04 µg/mL); against Mycobacterium avium [3] it was 18 µM (≈ 4.81 µg/mL); in the series on Mycobacterium avium [4] it was 13 µM (≈ 3.47 µg/mL). The CC50 at 24 h in series [2] was found to be 104 µM.
For `Oc1nc2ccccc2c(O)c1-c1ccccc1`, the results for the MIC90 (in series [1]; in the series on Mycobacterium avium [3]; against Mycobacterium avium [4]) were 23.5 µM (≈ 5.58 µg/mL), 21.2 µM (≈ 5.03 µg/mL) and 19.8 µM (≈ 4.7 µg/mL), respectively. Also, the CC50 at 24 h in series [2] turned out to be 96.5 µM.
In the case of `CC(=O)Oc1c(-c2ccccc2)c(=O)[nH]c2ccc(F)cc12`, the values for the MIC90 (in series [1]; in the series on Mycobacterium avium [3]; in the series with Mycobacterium avium [4]) were 9.5 µM (≈ 2.82 µg/mL), 7.5 µM (≈ 2.23 µg/mL) and 8.9 µM (≈ 2.65 µg/mL), respectively. Also, the CC50 at 24 h in series [2] worked out at 88.4 µM.
For `Cc1cc2[nH]c(=O)c(-c3ccccc3)c(O)c2cc1C`, in that order: 17.3 µM (≈ 4.59 µg/mL), 20.3 µM (≈ 5.39 µg/mL), 15.7 µM (≈ 4.17 µg/mL) and 61.8 µM.
Take `O=c1[nH]c2c(O)cccc2c(O)c1-c1ccccc1`: the MIC90 in series [1] was found to be 20 µM (≈ 5.07 µg/mL); against Mycobacterium avium [3] it was 13.7 µM (≈ 3.47 µg/mL); with Mycobacterium avium [4], 17 µM (≈ 4.31 µg/mL). Also, the CC50 at 24 h in series [2] is 84.1 µM.
The matching figures for `O=c1[nH]c2ccc(F)cc2c(O)c1-c1ccccc1`: 8.4 µM (≈ 2.14 µg/mL), 11.5 µM (≈ 2.94 µg/mL), 8.5 µM (≈ 2.17 µg/mL) and 67.4 µM.
The matching figures for `COc1ccc2[nH]c(=O)c(-c3ccccc3)c(O)c2c1`: 15.3 µM (≈ 4.09 µg/mL), 18.6 µM (≈ 4.97 µg/mL), 17.5 µM (≈ 4.68 µg/mL) and 75.4 µM.
For `O=c1[nH]c2ccc(O)cc2c(O)c1-c1ccccc1`, in that order: 16.8 µM (≈ 4.25 µg/mL), 13.2 µM (≈ 3.34 µg/mL), 15.6 µM (≈ 3.95 µg/mL) and above 128 µM.
Take `Cc1ccc2[nH]c(=O)c(-c3ccccc3)c(O)c2c1`: the MIC90 was determined as 19.2 µM (≈ 4.82 µg/mL) in series [1], 13.2 µM (≈ 3.32 µg/mL) with Mycobacterium avium [3] and 12.6 µM (≈ 3.17 µg/mL) against Mycobacterium avium [4]. Besides, the CC50 at 24 h in series [2] is above 128 µM.
On to `Cc1c(O)c2ccccc2[nH]c1=O`, for which the MIC90 was 23.2 µM (≈ 4.06 µg/mL) in series [1], 14.5 µM (≈ 2.54 µg/mL) in the series with Mycobacterium avium [3] and 18.4 µM (≈ 3.22 µg/mL) against Mycobacterium avium [4]. For the same compound, the CC50 at 24 h in series [2] worked out at 84.7 µM.
For `O=c1[nH]c2cc(O)ccc2c(O)c1-c1ccccc1`, in that order: 18.5 µM (≈ 4.69 µg/mL), 15.7 µM (≈ 3.98 µg/mL), 16.3 µM (≈ 4.13 µg/mL) and 92.1 µM.
The matching figures for `COc1ccc2c(O)c(-c3ccccc3)c(=O)[nH]c2c1`: 19.5 µM (≈ 5.21 µg/mL), 16.5 µM (≈ 4.41 µg/mL), 13.8 µM (≈ 3.69 µg/mL) and 59 µM.
For `NNC(=O)c1ccncc1` [ISONIAZID], the MIC90 (in series [1]; with Mycobacterium avium [3]; with Mycobacterium avium [4]) was below 0.1 µM throughout.
